How the values were obtained:
[1] = In vivo toxicity studies in mice (NIH/NIAID preclinical service)
Method: A control group was treated with PBS. […] No signs of distress or significant weight loss were observed during the 4 days of treatment. […]
B. In vivo toxicity studies in mice for bPEI 600 and DAB-Am-4. Experiments were conducted through NIAID/NIH preclinical service agreement No HHSN272201700017I/ […]
Procedures and Endpoints:
1- Baseline weights of all mice
2- IP treatment (twice a day, for 4 days)
3- Daily assessment of weights and condition
4- All animals sacrificed the following morning after the last evening treatment 5- Blood samples collected by IC stick for lab tests (liver, spleen and blood profiles) 6- Internal organs examined for signs of gross tissue toxicity
1. Toxicity evaluation of bPEI 600 Da in mice.
A toxicity screen was performed in uninfected mice treated with 3 doses of bPEI 600 Da, administered for 4 days. In this study, 3 doses of 5, 10 and 25 mg/kg/day were administered twice daily IP for 4 days (n=4/group). A control group was treated with the vehicle (PBS). The mice were examined daily and the weights and general condition were recorded daily. To examine liver, renal and blood function parameters, blood samples were obtained by intracardiac puncture at the end of the study (the following day after last dose) and the mice were sacrificed to examine the internal organs for signs of gross tissue toxicity.
The weights were recorded
In order to confirm the results of the lab results obtained in the toxicity study, a second group of slightly larger mice were treated with the high and the low doses of bPEI 600 Da (25 mg/kg and 5 mg/kg, n=6/group) and the vehicle control (PBS, n=4) for 4 days. Blood samples were collected at the end of the study for liver and renal chemistry profiles. The results are shown in the next […]
REN AL PBS 5 mg/kg 25 mg/kg
LIVER PBS 5 mg/kg 25 mg/kg
Al b:Gl ob R a ti o 1 1 1 […]
obtained from the second group of mice treated with bPEI 600 Da for 4 days.
No signs of distress or significant weight loss were ere observed during the […]
show significant differences with the results obtained in the PBS treated group of control mice.
Statistical analysis: Means were compared by Student’s t test, and mortality was compared by Fisher’s exact test, where applicable.
Ethics regulation of Laboratory animals: Animals were housed in facilities approved by the Association for Assessment and Accreditation of Laboratory Animal Care and Use Committee
2. Toxicity evaluation of DAB-Am-4 in mice.
A toxicity screen in uninfected mice was performed. 2 doses of 5 and 25 mg/kg/day were administered twice daily IP for 4 days (n=6/group). A control group was treated with the vehicle […]
The mice were examined daily and the weights and general condition were recorded. […]

[2] = tested on: HSV-1; test: In vitro HSV-1 replication (plaque reduction) assay, EC50 and SI50 estimates; format: cell-based; parameters: unit not given beside the values; conditions: HFF cells infected with HSV-1
[3] = mice, 5 mg/kg/day twice daily IP, 4 days, Mean, CBC (n=1-2)
[4] = mice, 5 mg/kg/day twice daily IP, 4 days, Mean, LIVER (n=5)
[5] = mice, 5 mg/kg/day twice daily IP, 4 days, Mean, RENAL (n=5)

For NCCCN(CCCN)CCCN(CCCCN(CCCN(CCCN)CCCN)CCCN(CCCN)CCCN)CCCN(CCCN)CCCN [DAB-Am-8], the “signs of acute toxicity (lab tests)” value ([1]; mice, 5 and 25 mg/kg/day DAB-Am-4, 5 mg/kg/day DAB-Am-8) was “no conclusive signs of acute toxicity”, the “signs of distress during the observation period” value ([1]; mice, low dose 5 mg/kg/day) was “no significant signs” and the “%Lymphocyte” value [1, 3] was 75%. For the same compound, the Hematocrit [1, 3] was 42, the WBC [1, 3] was 6 and the AST [1, 4] was 437. For the same compound, the “Alb:Glob Ratio” value [1, 4] was 2, the Albumin [1, 4] was 3 and the Amylase [1, 4] was 730. The “Bile Acids” value [1, 4] was 238, the Cholesterol [1, 4] was 61 and the “Creatine Kinase” value [1, 4] was 3149. The GGT [1, 4] was less than 1, the Globin [1, 4] was 2 and the “Total Protein” value [1, 4] was 4. The Triglyceride [1, 4] was 114, the BUN [1, 5] was 22 and the “Ca:Phos Ratio” value [1, 5] was 1. The Calcium [1, 5] was 8, the Chloride [1, 5] was 111 and the Glucose [1, 5] was 204. For the same compound, the K [1, 5] was 7, the Na [1, 5] was 147 and the “Na:K Ratio” value [1, 5] was 22. For the same compound, the Phosphorus [1, 5] was 9, the “Uric Acid” value [1, 5] was 2 and the toxicity ([1]; mouse, in vivo, 25 mg/kg/day) was “displayed toxicity”.
For Nc1nc2c(ncn2COCCO)c(=O)[nH]1 [Acyclovir], the SI50 [2] was ~ 10^2.

Source: publication PMC7377361, “Pressurized DNA state inside herpes capsids—A novel antiviral target” (PLoS Pathogens, 2020)
